Test results as given in ChEMBL document CHEMBL1201862, “PubChem BioAssay data set” (2004).
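Exposure lasted 48 hours, with cells grown in 96-well plates and compounds tested at five concentrations. At the GI50, growth is halved.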 Active and inactive are the calls of the source. Cut-off read from the data, not from the text of the source: active = GI50 up to about 1.1 µM and inactive = higher.

Columns and labels:
Assay in all cases: NCI-60 cell line screen, 48 h
MDA-MB-435 = tested on: MDA-MB-435
HOP-62 = tested on: HOP-62
T47D = tested on: T47D
MCF7 = tested on: MCF7
Hs-578T = tested on: Hs-578T
EKVX = tested on: EKVX
UACC-62 = tested on: UACC-62
SR = tested on: SR
NCI/ADR-RES = tested on: NCI/ADR-RES
RPMI-8226 = tested on: RPMI-8226
IGROV-1 = tested on: IGROV-1
ACHN = tested on: ACHN
SNB-19 = tested on: SNB-19
NCI-H460 = tested on: NCI-H460
MDA-MB-231 = tested on: MDA-MB-231
OVCAR-4 = tested on: OVCAR-4
HCT-15 = tested on: HCT-15
HOP-92 = tested on: HOP-92
SNB-75 = tested on: SNB-75
SF-268 = tested on: SF-268

Compound	GI50 (MDA-MB-435)	GI50 (HOP-62)	GI50 (T47D)	GI50 (MCF7)	GI50 (Hs-578T)	GI50 (EKVX)	GI50 (UACC-62)	GI50 (SR)	GI50 (NCI/ADR-RES)	GI50 (RPMI-8226)	GI50 (IGROV-1)	GI50 (ACHN)	GI50 (SNB-19)	GI50 (NCI-H460)	GI50 (MDA-MB-231)	GI50 (OVCAR-4)	GI50 (HCT-15) [µM]	GI50 (HOP-92)	GI50 (SNB-75)	GI50 (SF-268)
NC1=CN2c3ccccc3N(CC(=O)O)C2C=C1 (stereo not given)	> 100 µM (inactive)	> 100 µM (inactive)	> 100 µM (inactive)	> 100 µM (inactive)	> 100 µM (inactive)	> 100 µM (inactive)	> 100 µM (inactive)	> 100 µM (inactive)	> 100 µM (inactive)	> 100 µM (inactive)	> 100 µM (inactive)	> 100 µM (inactive)	> 100 µM (inactive)	> 100 µM (inactive)	> 100 µM (inactive)	> 100 µM (inactive)	> 100	> 100 µM (inactive)	> 100 µM (inactive)	> 100 µM (inactive)
Nc1ccn([C@H]2CO[C@@H](CO)O2)c(=O)n1	20.8 µM (inactive)	1.67 µM (inactive)	> 35.6 µM (inactive)	1.48 µM (inactive)	> 100 µM (inactive)	> 55.8 µM (inactive)	2.37 µM (inactive)	1.49 µM (inactive)	3.88 µM (inactive)	> 94 µM (inactive)	74 µM (inactive)	0.106 µM (active)	4.26 µM (inactive)	1.58 µM (inactive)	> 55.7 µM (inactive)	> 100 µM (inactive)	5.4	1.82 µM (inactive)	> 100 µM (inactive)	11.4 µM (inactive)
